From patent US20220411525A1, “BCMA AS A TARGET FOR T CELL REDIRECTING ANTIBODIES IN B CELL LYMPHOMAS” (Janssen Pharmaceutica NV, priority 2021, published 2022)
Values joined by “and” are separate entries in the source; they are usually repeats but may differ in a detail not shown here. Identical values can stand only once.

How the values were obtained:
[1] = test system: B cell malignancy cell lines (RPMI-8226, JeKo-1, BCWM.1, CII); assay: Cytotoxicity assay, cell lines co-cultured with healthy donor PBMCs; type: cell-based
Method: (§1) Since the different B cell malignancy cell lines express BCMA to different extents, it was explored whether co-culture of these cell lines with the BCMAxCD3 BsAb Teclistamab in presence of HD PBMCs would lead to activation of T cells. To assess this, 4 cell lines were selected based on previously determined BCMA levels: RPMI-8226 (MM, positive control; high BCMA), BCWM.1 (WM, high BCMA), CII (CLL, intermediate BCMA) and JeKo-1 (MCL, low BCMA). Cell lines and age-matched HD PBMCs were cultured in presence of 100 ng/mL Teclistamab or the control BsAbs (BCMAxnull or nullxCD3) with or without 100 nM γ-secretase inhibitor. As a positive control, anti-CD3/CD28 antibodies were added to the co-cultures to induce TCR stimulation.
(§2) FIGS. 4A-4G provide the results of the assessment, which are that BCMAxCD3 DuoBody® induces activation, degranulation, cytokine secretion and cytotoxicity by T cells in the presence of B cell malignancy cell lines. PBMCs of healthy donors were left unstimulated or stimulated with 100 ng/mL BCMAxCD3 DuoBody®, BCMAxnull, nullxCD3 or anti-CD3/CD28 antibodies. Cells were left untreated (−) or treated with 100nM γ-secretase inhibitor (+). T cells were co-cultured with cell lines RPMI-8226 (multiple myeloma), JeKo-1 (mantle cell lymphoma), BCWM.1 (Waldenstrom's macroglobulinemia) or CII (chronic lymphocytic leukemia) in a 1:1 E:T ratio. After 48 hours activation by CD25 (FIG. 4A), degranulation (FIG. 4B), secretion of IFNy (FIG. 4D), IL-2 (FIG. 4E), TNFα (FIG. 4F), and cytotoxicity (FIG. 4G) were measured by flow cytometry (n=3-14). 4 days after incubation T cell proliferation was assessed by FACS (FIG. 4C) (n=3-9).
(§3) Cytotoxicity assay. […] Viability of the target cells was assessed using TO-PRO-3 (Invitrogen) and MitoTracker Orange (Invitrogen) using Flow Cytometry. Specific lysis of target cells was calculated as (% target cell death in treated sample—% cell death target cells in medium control)/(100—% cell death target cells in medium control)*100%. […]

primary CLL cells = assay: Cytotoxicity assay, primary CLL cells co-cultured with healthy donor T cells; type: cell-based, human; conditions: for average lysis of CLL cells: 48 h; for average lysis of CLL cells / average cell death of CLL cells: 10:1 E:T, per T cell donor; for average cell death of CLL cells: 96h
Method: Since primary CLL samples express BCMA at even lower levels compared to JeKo-1 cell lines, the present inventors explored whether this expression level was still high enough to induce effective lysis of CLL cells. To assess this HD T cells were co-cultured for 48-96 h with primary CLL cells in the presence of 100 ng/mL of Teclistamab with or without 100 nM γ-secretase inhibitor.
FIGS. 5A-5C illustrate how healthy donor T cells kill primary CLL cells in presence of BCMAxCD3 DuoBody, which is largely dependent on CD8^+ T cells. Measurement of cytotoxicity after PBMCs of healthy donors were left unstimulated or stimulated with 100 ng/mL BCMAxCD3 DuoBody®, in the absence (−) or presence (+) of 100 nM γ-secretase inhibitor. PBMCs were T cells were co-cultured with primary CLL in a 10:1 E:T ratio for (FIG. 5A) 48 h or (FIG. 5B) 96 h. […] (n=8) The P value was calculated by Wilcoxon test (FIG. 5A), paired t test (FIG. 5B) or repeated measures one-way ANOVA (FIG. 5C). Data are presented as mean±SD. *P<0.05; **P<0.01; ***P<0.001.
Cytotoxicity assay. Cell lines or primary CLL samples were labelled with Cell Trace Violet (CTV, Thermo Fisher Scientific) or carboxyfluorescein diacetate succinimidyl ester (CFSE, ThermoFisher Scientific) according to manufacturer's instructions and co-cultured with healthy donor PBMCs or CLL derived (autologous) T cells in different effector-target (E:T) ratios. Where indicated prior to co-culture CD4 and CD8 T cells were isolated using MACS beads (Miltenyi), according to manufacturer's instructions. Co-cultures were in the presence of 100 ng/mL BCMAxCD3, BCMAxnull or nullxCD3. 100nM γ-secretase inhibitor (Ly411575) was added where indicated. Viability of the target cells was assessed using TO-PRO-3 (Invitrogen) and MitoTracker Orange (Invitrogen) using Flow Cytometry. Specific lysis of target cells was calculated as (% target cell death in treated sample—% cell death target cells in medium control)/(100—% cell death target cells in medium control)*100%. Samples were excluded when cell death in medium controls exceeded 50%.

CLL derived T cells = assay: Activation and degranulation of CLL derived T cells in CLL PBMCs; type: cell-based, human; conditions: 96 h
Method: (§4) It was also assessed whether Teclistamab would induce activation and cytotoxicity of CLL derived T cells. To assess activation and degranulation, full PBMCs of CLL patients were treated with 100 ng/mL Teclistamab or control BsAbs for 96 h with or without presence of γ-secretase inhibition. […] For FIGS. 6A-6, CLL PBMCs were stimulated with 100 ng/mL BCMAxCD3, BCMAxnull, nullxCD3 or anti-CD3/CD28 antibodies. Flow cytometry analysis of (FIG. 6A) CD25 and (FIG. 6B) CD107a were performed after 4 days (n=3-5). For FIG. 6C, T cells from CLL patients were isolated and co-cultured in a 5:1 E:T ratio with their autologous CLL for 96 h in the presence or absence of 100 ng/mL BCMAxCD3 DuoBody and were left untreated (−) or treated with 100 nM γ-secretase inhibitor (+). (n=6) The P value was calculated ordinary one-way ANOVA (FIGS. 6A-6B) or paired t test (FIG. 6C). Data are presented as mean±SD. *P<0.05; **P<0.01; ***P<0.001; ****P<0.0001.
(§5) Activation, cytokine production and degranulation. PBMCs from HD or CLL patients were incubated in the presence of 100 ng/mL BCMAxCD3, BCMAxnull or nullxCD3 or stimulated with CD3 (clone 1XE) and CD28 (clone 15E8) antibodies for 2 days. Where indicated HD PBMCs were co-cultured in a 1:1 E:T ratio with RPMI-8226, JeKo-1, CII or BCWM1. 100 nM γ-secretase inhibitor (Ly411575) was added where indicated. […]

[2] = test system: T cells of healthy donor PBMCs; assay: Activation, degranulation and cytokine production of healthy donor T cells co-cultured with B cell malignancy cell lines; type: cell-based, human
Method: as §1, §2, §5

[3] = test system: T cells of healthy donor PBMCs; assay: T cell proliferation of healthy donor PBMCs co-cultured with cell lines; type: cell-based, human; conditions: co-culture of HD T cells with B cell malignancy cell lines, 4 days
Method: as §2
T cell proliferation. PBMCs from HD patients were labelled with CTV and cultured alone or in 1:1 E:T ratio with RPMI-8226, JeKo-1, CII or BCWM1. PBMCs were incubated in the presence of 100 ng/mL BCMAxCD3, BCMAxnull or nullxCD3 or stimulated with CD3 (clone 1XE) and CD28 (clone 15E8) antibodies. 100 nM γ-secretase inhibitor (Ly411575) was added where indicated. After 4 days proliferation was measured by flow cytometry as described above.

autologous CLL cells = assay: Cytotoxicity assay, CLL derived T cells co-cultured with autologous CLL cells; type: cell-based, human; conditions: 96 h, 5:1 E:T
Method: as §4, §3

[4] = 100 ng/mL plus 100 nM γ-secretase inhibitor
[5] = 100 ng/mL, no γ-secretase inhibitor
[6] = 100 ng/mL, with 100 nM γ-secretase inhibitor

Teclistamab: BCMAxCD3 bispecific antibody developed with Genmab DuoBody technology, provided by Janssen Pharmaceuticals
cytotoxicity upon addition of γ-secretase inhibitor [1, 4]: did not improve | lysis of JeKo-1 compared to BCWM.1 or CII cell lines ([1]; 100 ng/mL, JeKo-1 (low BCMA)): more efficiently lysed | cell death of target cells ([1]; 100 ng/mL, co-culture with HD T cells, 1:1 E:T, 48 hours): induced cell death of target cells | average lysis of CLL cells (primary CLL cells; [5]): 12.9% and 16.4% | average lysis of CLL cells (primary CLL cells; [6]): 14.9% and 21.6% | killing by HD CD4+ T cells (primary CLL cells; 100 ng/mL, 96 h, 5:1 E:T, CD4+ T cells only): not able to induce killing | lysis by HD CD8+ T cells (primary CLL cells; 100 ng/mL, 96 h, 5:1 E:T, CD8+ T cells): up to 60% | average cell death of CLL cells (primary CLL cells; [5]): 15.8% and 20% | average cell death of CLL cells (primary CLL cells; [6]): 25,8% and 27.4% | lysis of CLL cells by healthy donor T cells (primary CLL cells; summary statement, in presence of teclistamab): up to 40% | CD25 activation in T cells of CLL patients upon addition of γ-secretase inhibitor (CLL derived T cells; 100 ng/mL plus γ-secretase inhibitor): enhanced | CD25 activation in CD4+ and CD8+ T cells of CLL patients (CLL derived T cells; 100 ng/mL, CLL PBMCs): trend towards increased CD25 activation | T cell activation and proliferation upon increasing BCMA levels by γ-secretase inhibition [2, 4]: not further enhanced | activation marker CD25 on CD4+ and CD8+ T cells ([2]; 100 ng/mL, 2 days co-culture with cell lines, 1:1 E:T): upregulation of the activation marker CD25 | CD25 on T cells, PBMCs cultured without a target cell ([2]; 100 ng/mL, no target cell): did not lead to upregulation of CD25 | T cell proliferation [3]: resulted in T cell activation, proliferation and cytotoxicity | lysis of autologous CLL cells upon addition of γ-secretase inhibition (autologous CLL cells; [4]): slightly increased | mean lysis of autologous CLL cells (autologous CLL cells; [5]): 40%
